One series relates to mice. Briefly: Acute toxicity by intravenous administration. In kind it is in vivo. The settings on record: intravenously administered to tail vein in ten mice at the dose of 30 mg/kg. On the procedure:
On the other hand, it was confirmed that the acute toxicity of all extent of the compounds of the present invention was more than 30 mg/kg by intravenous administration. Therefore, glycerol derivatives of the present invention may be considered to be sufficiently safe and suitable for medical use. For example, the mortality (dead/used) in glycerol derivatives of the present invention, i.e. compounds prepared in Example l(g), l(v), 5(d), 12(b), 12(n), 12(o), 12(s) and 12(x) was 0/10, 0/10, 0/10, 1/10/ 0/10, 0/10, 0/10 and 0/10, respectively, when each glycerol compound was intravenously administered to tail vein in ten mice at the dose of 30 mg/kg.

For series [1], the target named is phospholipase C obtained from lung of guinea-pig. The series is described as follows: Inhibitory effect on phospholipase C (method of Rittenhouse-Simmons, 3H-labelled phosphatidyl-inositol substrate). The settings on record: enzyme from lung of guinea-pig; substrate 3H-myoinositol labelled phosphatidyl-inositol from rat liver microsome. In kind it is biochemical. On the procedure: (3) Inhibitory effect on phospholipase C
The activity of the enzyme was examined by the method of Rittenhouse-Simmons by using ^3H-myoinsitol labelled phosphatidyl-inositol biosynthesized in microsome of liver in rat as substrate and phospholipase C obtained from lung of guinea-pig as enzyme [cf. J. Clin. Invest., 63, 580 (1979)].
(§1) The evaluation is conducted using the concentration of compounds of the present invention required to produce a 50% inhibition of each effect, i.e. IC50.
(Microsomes from liver hold many membrane-bound enzymes, among them those of drug oxidation.)

In series [2] the target is phospholipase A2 obtained from lung of guinea-pig. Briefly: Inhibitory effect on phospholipase A2 (modified method of Shakir, 14C-arachidonyl phosphatidylcholine substrate). The settings on record: enzyme from lung of guinea-pig; substrate L-B-[1-14C]-arachidonyl-a'-stearoyl-phosphatidylcholine. The format is biochemical. On the procedure:
(2) Inhibitory effect on phospholipase A
The activity of the enzyme was examined by modification of the method of Shakir by using L-B-[1-^14C]- arachidonyl-a'-stearoyl-phosphatidylcholine as substrate and phospholipase A2 obtained from lung of guinea-pig as enzyme [cf. Anal. Biochem., 114, 67 (1981)].
as §1

In series [3] the target is PAF-induced platelet aggregation (Cavia porcellus, UniProt P21556). The series is described as follows: Inhibitory effect on PAF-induced platelet aggregation (method of Born, platelet rich plasma). The format is cell-based. The note with it: platelet rich plasma from male guinea-pig; PAF (10 nM)-induced aggregation. Here is the method: (1) Inhibitory effect on PAF-induced platelet aggregation
PAF-induced platelet aggregation, sequence (P21556 whole entry): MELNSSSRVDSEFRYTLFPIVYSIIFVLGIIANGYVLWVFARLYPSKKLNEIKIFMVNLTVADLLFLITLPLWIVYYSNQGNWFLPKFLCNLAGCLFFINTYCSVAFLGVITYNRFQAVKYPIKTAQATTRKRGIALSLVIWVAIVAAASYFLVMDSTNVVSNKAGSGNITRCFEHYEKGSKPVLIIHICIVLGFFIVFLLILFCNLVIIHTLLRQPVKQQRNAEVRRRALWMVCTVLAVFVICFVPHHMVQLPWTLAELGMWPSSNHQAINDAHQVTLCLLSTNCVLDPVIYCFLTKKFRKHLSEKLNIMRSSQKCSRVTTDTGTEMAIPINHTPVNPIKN
A mixture of 9 parts of blood obtained from male guinea-pig, and one part of 3.8X trisodium citrate was centrifuged for 10 minutes at 120 x g at room temperature to obtain platelet rich plasma (PRP). Using obtained PRP, PAF (lOnM)-induced aggregation was determined by the method of Born [cf. J. Physiol., 162, 67 (1962)].
as §1

Consider `CCCCCCCCCCCCCCCCOCC(COC(=O)CCC[N+](C)(C)C)OCc1ccccc1` (racemic) [1 (v), (2RS)-1-0-hexadecyl-2-0-benzyl-3-0-[4-(N,N,N-trimethylammonio)-butyryl]glycerol halide], for which the “mortality (dead/used)” value with mice is given as 0/10.

Turning to `CCCCCCCCCCCCCCCCOCC(COCCCC[N+](C)(C)C)OC(=O)c1ccccc1` (racemic) [12 (n), (2RS)-l-0-hexadecyl-2-0-benzoyl-3-0-[4-(N,N,N-trimethylammonio)-butyl]glycerol halide], the “mortality (dead/used)” value in the series with mice is on record as 0/10.

Turning to `CCCCCCCCCCCCCCCCOCC(COCCCC[N+](C)(C)C)OC(=O)NC` (racemic) [12 (o), (2RS)-1-0-hexadecyl-2-0-(N-methylcarbaraoyl)-3-0-[4-(N,N,N-trimethylammonio)butyl]glycerol halide], in the series on mice, the “mortality (dead/used)” value was 0/10. Turning to `CCCCCCCCCCCCCCCCSCC(COCCCC[N+](C)(C)C)OCc1ccccc1` (racemic) [12 (b), (2RS)-1-hexadecylthio-2-0-benzyl-3-0-[4-(N,N,N-trimethylammanio)-butyl]-2,3-propanediol halide], the “mortality (dead/used)” value with mice was 1/10. For `CCCCCCCCCCCCCCCCOCC(COCCCC[N+](C)(C)C)OCc1ccccc1` (racemic) [1 (g), (2RS)-l-0-hexadecyl-2-0-benzyl-3-0-[4-(N,N,N-trimethylammonio)butyl]glycerol chloride], the IC50 in series [1] amounted to 180 µM; in series [2], 130 µM. For the same compound, the “mortality (dead/used)” value in the series with mice is 0/10. Turning to “(2RS)-1-0-hexadecyl-2-[ethoxy(thiocarbonyl)thio]-3-0-[4-(N,N,N-trimethylammonio)butyl]-1,3-propanediol halide [12 (x)]”, the IC50 in series [1] is 200 µM; in series [3], 3.8 µM; in series [2], 240 µM. In addition, the “mortality (dead/used)” value with mice is 0/10. As for `CCCCCCCCCCCCCCCCOCC(O)COCCCC[N+](C)(C)C` (racemic) [5 (d), (2RS)-1-0-hexadecyl-3-0-[4-(N,N,N-trimethylammonio)butyl]glycerol halide], the IC50 in series [1] was determined as 660 µM; in series [2], 240 µM. Further, in the series on mice, the “mortality (dead/used)” value was 0/10. `CCCCCCCCCCCCCCCCOCC(COCCCC[N+](C)(C)C)SCC` (racemic) [12 (s), (2RS)-l-0-hexadecyl-2-ethylthio-3-0-[4-(N,N,N-trimethylammonio)-butyl]-1,3-propanediol halide]: the “mortality (dead/used)” value with mice was 0/10.

In general, IC50 refers to the concentration that gives 50% inhibition. A low value points to greater potency.

These data come from EP0094586A2, “Glycerol derivatives, process for preparing same and pharmaceutical composition containing same” (ONO PHARMACEUTICAL CO., LTD., priority 1982, dated 1983).
